Series [1] can be described thus: Growth inhibition of MCSF expressing mouse M-NSF60 cells.
The subject of the next series is NSO. The series can be described thus: Growth inhibition of MCSF-independent mouse NSO cells.
In series [2] the target is Macrophage colony-stimulating factor 1 receptor (Homo sapiens, UniProt P07333).
The subject of a further series is Rattus norvegicus. The experiment in a line: Antiinflammatory activity against carrageenan-induced paw edema in rat assessed as paw size at 40 mg/kg, iv relative to control. Conditions: read-out: Inhibition. For orientation: Carrageenan injected into the paw causes an acute inflammation.
The nature of series [3]: Plasma clearance in rat. Type of series: ADME, organism-based.
Series [4] can be described thus: Plasma clearance in rat at 3 mg/kg, iv. Type of series: ADME, organism-based. Further details: dose 3 mg/kg, route intravenous.

SMILES strings stand for the structures.

Sequence of Macrophage colony-stimulating factor 1 receptor (P07333 whole entry): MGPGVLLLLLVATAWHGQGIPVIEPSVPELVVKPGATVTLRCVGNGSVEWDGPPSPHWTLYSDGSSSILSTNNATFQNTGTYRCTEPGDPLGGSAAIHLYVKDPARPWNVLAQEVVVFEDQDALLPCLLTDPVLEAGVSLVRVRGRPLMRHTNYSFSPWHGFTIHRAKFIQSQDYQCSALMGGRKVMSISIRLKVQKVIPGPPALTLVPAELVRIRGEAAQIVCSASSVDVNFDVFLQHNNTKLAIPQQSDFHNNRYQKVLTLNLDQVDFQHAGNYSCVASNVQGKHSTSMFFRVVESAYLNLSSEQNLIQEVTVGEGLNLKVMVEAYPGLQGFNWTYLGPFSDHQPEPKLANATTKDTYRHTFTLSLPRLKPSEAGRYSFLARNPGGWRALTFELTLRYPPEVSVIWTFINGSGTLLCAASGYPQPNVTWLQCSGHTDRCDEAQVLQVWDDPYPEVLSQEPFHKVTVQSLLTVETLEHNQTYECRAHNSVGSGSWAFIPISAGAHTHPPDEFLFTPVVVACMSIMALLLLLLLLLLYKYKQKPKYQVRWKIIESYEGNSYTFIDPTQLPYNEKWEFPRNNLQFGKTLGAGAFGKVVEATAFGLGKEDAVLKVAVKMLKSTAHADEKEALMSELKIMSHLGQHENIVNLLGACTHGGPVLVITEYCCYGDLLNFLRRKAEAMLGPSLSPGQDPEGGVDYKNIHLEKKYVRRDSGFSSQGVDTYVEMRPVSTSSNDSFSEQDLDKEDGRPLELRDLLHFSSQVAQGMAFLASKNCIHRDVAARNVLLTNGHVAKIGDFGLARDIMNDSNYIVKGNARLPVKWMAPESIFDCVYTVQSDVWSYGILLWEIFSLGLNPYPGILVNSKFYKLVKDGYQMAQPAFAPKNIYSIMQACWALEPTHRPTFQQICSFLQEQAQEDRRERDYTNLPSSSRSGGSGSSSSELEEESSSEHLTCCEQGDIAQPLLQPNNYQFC

On to `COc1ccc(Nc2c(C(N)=O)cnc3cc(-c4ccncc4)ccc23)cc1F`, for which the values for the 50% inhibitory concentration (IC50) (in series [1]; in the series with NSO; in series [2]) were 0.32 µM, 32 µM and 0.04 µM, respectively.

Take `Cc1cc(Nc2c(C(N)=O)cnc3cc(-c4ccncc4)ccc23)ccc1Cl`: the IC50 (usually the concentration needed to halve the response being measured) in series [1] was found to be 2 µM; in the series on NSO, 32 µM; in series [2], 0.16 µM.

As to `CN(C)c1ccc(-c2ccc3c(Nc4ccccc4)c(C(N)=O)cnc3c2)cc1`, the IC50 in series [1] is 6.3 µM; in the series with NSO, 32 µM; in series [2], 0.04 µM.

In the case of `COc1ccc(Nc2c(C(N)=O)cnc3cc(-c4ccncc4)ccc23)cc1Cl`, the IC50 was 0.2 µM in series [1], greater than 50 µM in the series with NSO and 0.032 µM in series [2].

Consider `NC(=O)c1cnc2cc(-c3ccc(C(=O)C4CC4)cc3)ccc2c1Nc1ccccc1`, for which the IC50 in series [1] was determined as 4 µM; with NSO it was 10 µM; in series [2], 0.1 µM.

As for `NC(=O)c1cnc2cc(-c3ccc(C(=O)C4CCCC4)cc3)ccc2c1Nc1ccccc1`, the IC50 in series [1] is greater than 20 µM; in the series on NSO, greater than 20 µM; in series [2], 0.032 µM.

Consider `CS(=O)(=O)Cc1cccc(-c2ccc3c(Nc4ccccc4)c(C(N)=O)cnc3c2)c1`, for which the values for the IC50 (in series [1]; in the series on NSO; in series [2]) were 5 µM, greater than 20 µM and 0.025 µM, respectively.

Consider `N#Cc1ccc(-c2ccc3c(Nc4ccccc4)c(C(N)=O)cnc3c2)cc1`, for which the IC50 came out at 4 µM in series [1], 32 µM with NSO and 0.05 µM in series [2].

For `NC(=O)c1cnc2cc(-c3ccncc3)ccc2c1Nc1ccccc1`, the inhibition in vivo at 40 mg/kg in the series with Rattus norvegicus was determined as 95%. Further, the clearance (in general, the rate of elimination divided by the concentration) in series [3] stood at 39 mL/min/kg. Besides, the IC50 in series [1] was found to be 0.8 µM; in the series on NSO, 12 µM.

Consider `COc1ccc(Nc2c(C(N)=O)cnc3cc(-c4ccncc4)ccc23)cc1`, for which the IC50 in series [1] was 0.8 µM; in the series on NSO, 16 µM; in series [2], 0.063 µM.

Consider `N#Cc1cccc(-c2ccc3c(Nc4ccccc4)c(C(N)=O)cnc3c2)c1`, for which the half-inhibitory concentration (IC50) is 8 µM in series [1], 10 µM with NSO and 0.32 µM in series [2].

For the molecule `CSc1ccc(Nc2c(C(N)=O)cnc3cc(-c4ccncc4)ccc23)cc1`, the figures for the IC50 (in series [1]; with NSO; in series [2]) were 10 µM, greater than 50 µM and 0.13 µM, respectively.

As to `CCOc1ccc(Nc2c(C(N)=O)cnc3cc(-c4ccncc4)ccc23)cc1F`, the IC50 in series [1] is 4 µM; in the series with NSO, greater than 16 µM.

With `CC(C)Oc1ccc(Nc2c(C(N)=O)cnc3cc(-c4ccncc4)ccc23)cc1F`, the IC50 came out at 8 µM in series [1] and 13 µM in the series on NSO.

Take `CN(C)c1ccc(Nc2c(C(N)=O)cnc3cc(-c4ccncc4)ccc23)cc1`: the IC50 is 6.3 µM in series [1], 10 µM in the series with NSO and 0.063 µM in series [2].

As for `CC(C)Oc1ccc(Nc2c(C(N)=O)cnc3cc(-c4ccncc4)ccc23)cc1`, the IC50 in series [1] was 40 µM; in the series on NSO, greater than 50 µM; in series [2] it was 0.63 µM.

As for `NC(=O)c1cnc2cc(-c3ccncc3)ccc2c1Nc1cccc2[nH]ncc12`, the IC50 was 1.3 µM in series [1], greater than 32 µM in the series with NSO and 0.16 µM in series [2].

Consider `NC(=O)c1cnc2cc(-c3ccccc3)ccc2c1Nc1ccccc1`, for which the IC50 in series [1] is 10 µM; in the series on NSO it was 32 µM.

With `NC(=O)c1cnc2cc(-c3ccncc3)ccc2c1Nc1ccc(F)c(F)c1`, the 50% inhibitory concentration (IC50) in series [1] is 2.5 µM; in the series with NSO, greater than 32 µM; in series [2], 0.032 µM.

Regarding `Cc1cc(Nc2c(C(N)=O)cnc3cc(-c4ccncc4)ccc23)ccc1F`, the IC50 in series [1] was 1 µM; in the series on NSO, greater than 50 µM; in series [2] it was 0.05 µM.

Regarding `CS(=O)(=O)Cc1ccc(-c2ccc3c(Nc4ccccc4)c(C(N)=O)cnc3c2)cc1`, the IC50 in series [1] came to 1.6 µM; in the series on NSO, 8 µM; in series [2] it was 0.05 µM.

Take `CCS(=O)(=O)c1ccc(-c2ccc3c(Nc4ccccc4)c(C(N)=O)cnc3c2)cc1`: the results for the IC50 (in series [1]; in the series on NSO; in series [2]) were 0.8 µM, 8 µM and 0.2 µM, respectively.

With `NC(=O)c1cnc2cc(-c3ccc(C(=O)N4CCCCC4)cc3)ccc2c1Nc1ccccc1`, the IC50 is 0.4 µM in series [1], 8 µM with NSO and 0.016 µM in series [2].

Consider `NC(=O)c1cnc2cc(-c3ccc(C(=O)N4CCOCC4)cc3)ccc2c1Nc1ccccc1`, for which the IC50 in series [1] turned out to be 0.2 µM; in the series with NSO it was 8 µM; in series [2], 0.08 µM.

In the case of `CS(=O)(=O)c1ccc(-c2ccc3c(Nc4ccccc4)c(C(N)=O)cnc3c2)cc1`, the IC50 in series [1] is 0.1 µM; in the series on NSO, 20 µM; in series [2], 0.016 µM.

As for `Cc1ccc(Nc2c(C(N)=O)cnc3cc(-c4ccc(S(C)(=O)=O)cc4)ccc23)cc1C`, the IC50 in series [1] came out at 0.1 µM; in the series on NSO, 10 µM; in series [2] it was 0.008 µM. In series [4], the clearance was 51 mL/min/kg.

Take `Cc1ccc(Nc2c(C(N)=O)cnc3cc(-c4ccc(S(C)(=O)=O)cc4)ccc23)cc1F`: the 50% inhibitory concentration (IC50) was 3.2 µM in series [1], greater than 20 µM in the series on NSO and 0.063 µM in series [2].

As for `CS(=O)(=O)c1ccc(-c2ccc3c(Nc4ccc(F)cc4)c(C(N)=O)cnc3c2)cc1`, the IC50 stood at 0.4 µM in series [1], 10 µM with NSO and 0.16 µM in series [2]. For the same molecule, the clearance in series [4] is 4.5 mL/min/kg.

As for `COc1ccc(Nc2c(C(N)=O)cnc3cc(-c4ccc(S(C)(=O)=O)cc4)ccc23)cc1F`, the IC50 in series [1] came to 1 µM; in the series with NSO it was 20 µM; in series [2] it was 0.1 µM.

For the molecule `Cc1ccc(-c2ccc3c(Nc4ccccc4)c(C(N)=O)cnc3c2)cc1`, the IC50 worked out at 32 µM in series [1] and 25 µM in the series with NSO.

For the molecule `COc1ccc(-c2ccc3c(Nc4ccccc4)c(C(N)=O)cnc3c2)cc1`, the values for the IC50 (in series [1]; in the series on NSO; in series [2]) were 6.3 µM, 8 µM and 0.025 µM, respectively.

With `NC(=O)c1cnc2cc(-c3ccc(F)cc3)ccc2c1Nc1ccccc1`, the IC50 in series [1] was 25 µM; in the series on NSO it was 25 µM; in series [2], 0.032 µM.

`NC(=O)c1cnc2cc(-c3ccc(S(N)(=O)=O)cc3)ccc2c1Nc1ccccc1`: the concentration for half-maximal inhibition (IC50) worked out at 3.2 µM in series [1], 13 µM with NSO and 0.08 µM in series [2].

`NC(=O)c1cnc2cc(-c3ccncc3)ccc2c1Nc1ccc(F)cc1`: the half-inhibitory concentration (IC50) is 0.8 µM in series [1], greater than 40 µM in the series on NSO and 0.1 µM in series [2].

As to `Cc1ccc(Nc2c(C(N)=O)cnc3cc(-c4ccncc4)ccc23)cc1C`, the IC50 in series [1] was 0.1 µM; with NSO, greater than 50 µM; in series [2], 0.08 µM.

For `Cc1ccc(Nc2c(C(N)=O)cnc3cc(-c4ccncc4)ccc23)cc1F`, the IC50 in series [1] was 5 µM; in the series with NSO it was greater than 20 µM; in series [2], 0.08 µM.

In the case of `NC(=O)c1cnc2cc(-c3ccc(Br)cc3)ccc2c1Nc1ccccc1`, the IC50 came out at 50 µM in series [1], 50 µM with NSO and 0.016 µM in series [2].

For the molecule `NC(=O)c1cnc2cc(-c3ccc(N)cc3)ccc2c1Nc1ccccc1`, the IC50 was 1.6 µM in series [1] and 10 µM in the series on NSO.

Turning to `CS(=O)(=O)c1ccc(-c2ccc3c(Nc4ccc(F)c(F)c4)c(C(N)=O)cnc3c2)cc1`, the IC50 is 2 µM in series [1], greater than 20 µM in the series with NSO and 0.2 µM in series [2].

Turning to `COc1ccc(Nc2c(C(N)=O)cnc3cc(-c4ccc(S(C)(=O)=O)cc4)ccc23)cc1Cl`, the IC50 is 0.1 µM in series [1] and 13 µM with NSO.

On to `Cc1ccc(Nc2c(C(N)=O)cnc3cc(-c4ccncc4)ccc23)cc1Cl`, for which the IC50 is 0.16 µM in series [1], greater than 32 µM in the series with NSO and 0.04 µM in series [2].

For the molecule `NC(=O)c1cnc2cc(-c3ccncc3)ccc2c1Nc1ccc(OC(F)(F)F)c(Cl)c1`, the results for the concentration for half-maximal inhibition (IC50) (in series [1]; in the series with NSO; in series [2]) were greater than 20 µM, greater than 32 µM and 0.032 µM, respectively.

For the molecule `NC(=O)c1cnc2cc(-c3ccncc3)ccc2c1Nc1ccon1`, the results for the IC50 (in series [1]; with NSO; in series [2]) were greater than 50 µM, 40 µM and 3.2 µM, respectively.

With `NC(=O)c1cnc2cc(-c3ccncc3)ccc2c1Nc1n[nH]c2ccccc12`, the half-maximal inhibitory concentration (IC50) in series [1] is 0.8 µM; with NSO, greater than 50 µM; in series [2], 0.32 µM.

Regarding `NC(=O)c1cnc2cc(-c3ccc(C(F)(F)F)cc3)ccc2c1Nc1ccccc1`, the IC50 in series [1] is 16 µM; in the series on NSO it was 20 µM; in series [2], 0.13 µM.

`CS(=O)(=O)Nc1ccc(-c2ccc3c(Nc4ccccc4)c(C(N)=O)cnc3c2)cc1`: the figures for the IC50 (in series [1]; in the series on NSO; in series [2]) were 2 µM, 10 µM and 0.063 µM, respectively.

With `CC(=O)Nc1ccc(-c2ccc3c(Nc4ccccc4)c(C(N)=O)cnc3c2)cc1`, the half-maximal inhibitory concentration (IC50) in series [1] worked out at 1.3 µM; with NSO it was 4 µM; in series [2], 0.08 µM.
